According to article PMC10976219, “Purification and Biochemical Characterization of Polyphenol Oxidase Extracted from Wheat Bran (Wan grano)” (Molecules, 2024):

The compounds below were run on T1, wheat PPO (purified wheat bran polyphenol oxidase) (assay: spectrophotometric oxidation assay at […] nm, Lineweaver-Burk). Details: 50 mM phosphate pH 6.5, 35 °C, 2-10 mM substrate.
T1 construct: gene PPO-A1; native, purified from wheat bran (ammonium sulfate, DEAE-Sepharose, Superdex G-75); approx. 21 kDa on SDS-PAGE, dual bands 21 and 17 kDa
Assay type: biochemical, Triticum aestivum
`Oc1ccccc1O` [catechol] showed a Km of 6.36 ± 0.71 mM. Compound `O=C(O[C@@H]1Cc2c(O)cc(O)cc2O[C@@H]1c1ccc(O)c(O)c1)c1cc(O)c(O)c(O)c1` [epicatechin gallate] has a Km of 7.9 ± 0.64 mM. For `Oc1cc(O)c2c(c1)O[C@H](c1ccc(O)c(O)c1)[C@H](O)C2` [epicatechin], the Km was 8.01 ± 0.46 mM. `O=C(O[C@@H]1Cc2c(O)cc(O)cc2O[C@@H]1c1cc(O)c(O)c(O)c1)c1cc(O)c(O)c(O)c1` [epigallocatechin gallate] showed a Km of 7.7 ± 0.14 mM. `Oc1cc(O)c2c(c1)O[C@H](c1cc(O)c(O)c(O)c1)[C@H](O)C2` [epigallocatechin] gave a Km of 9.05 ± 0.18 mM. Work on `O=C(O)c1cc(O)c(O)c(O)c1` [gallic acid] yielded a Km of 7.05 ± 0.47 mM. With `Oc1cccc(O)c1O` [pyrogallic acid] the Km was 7.37 ± 0.71 mM.
